Tests used:
human beta3-adrenoceptor = biological target: T1, human beta3-adrenoceptor (Homo sapiens, UniProt P13945); assay: 3H-CGP12177 whole-cell binding, CHO cells expressing human beta3-adrenoceptor; settings: 3H-CGP 12177 whole cell binding, mean ± s.e.mean; for Kd: log KD, read-out: Beta 3 Log KD (converted)
T1 construct: expressed in transfected cells; host or cells: CHO cells

beta1-adrenoceptor = beta1-adrenoceptor (Homo sapiens, UniProt P08588); assay: 3H-CGP12177 whole-cell binding, CHO cells expressing human beta1-adrenoceptor; parameters: expressed in transfected cells; host or cells: CHO cells; settings: 3H-CGP 12177 whole cell binding, mean ± s.e.mean; for Kd: log KD, read-out: Beta 1 Log KD (converted)
Source text: (§1) The selectivity of a ligand is given by the ratio of beta-1 to beta-2 KD.

human beta2-adrenoceptor = biological target: T2, human beta2-adrenoceptor (Homo sapiens, UniProt P07550); assay: 3H-CGP12177 whole-cell binding, CHO cells expressing human beta2-adrenoceptor; settings: 3H-CGP 12177 whole cell binding, mean ± s.e.mean; for Kd: log KD, read-out: Beta 2 Log KD (converted)
T2 construct: expressed in transfected cells; host or cells: CHO cells
Source text: as §1

T1 sequence (P13945 whole entry): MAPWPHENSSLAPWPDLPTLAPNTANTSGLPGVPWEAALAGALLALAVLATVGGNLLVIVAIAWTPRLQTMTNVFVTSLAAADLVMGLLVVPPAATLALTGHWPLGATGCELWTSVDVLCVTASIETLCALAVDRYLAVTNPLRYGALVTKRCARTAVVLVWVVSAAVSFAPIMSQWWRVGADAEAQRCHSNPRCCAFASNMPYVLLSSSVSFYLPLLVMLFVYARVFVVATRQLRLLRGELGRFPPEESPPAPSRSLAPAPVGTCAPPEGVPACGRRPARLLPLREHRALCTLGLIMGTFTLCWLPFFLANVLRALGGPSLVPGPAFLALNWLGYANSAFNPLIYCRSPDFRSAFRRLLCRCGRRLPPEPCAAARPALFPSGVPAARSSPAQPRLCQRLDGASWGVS
T2 sequence (P07550 whole entry): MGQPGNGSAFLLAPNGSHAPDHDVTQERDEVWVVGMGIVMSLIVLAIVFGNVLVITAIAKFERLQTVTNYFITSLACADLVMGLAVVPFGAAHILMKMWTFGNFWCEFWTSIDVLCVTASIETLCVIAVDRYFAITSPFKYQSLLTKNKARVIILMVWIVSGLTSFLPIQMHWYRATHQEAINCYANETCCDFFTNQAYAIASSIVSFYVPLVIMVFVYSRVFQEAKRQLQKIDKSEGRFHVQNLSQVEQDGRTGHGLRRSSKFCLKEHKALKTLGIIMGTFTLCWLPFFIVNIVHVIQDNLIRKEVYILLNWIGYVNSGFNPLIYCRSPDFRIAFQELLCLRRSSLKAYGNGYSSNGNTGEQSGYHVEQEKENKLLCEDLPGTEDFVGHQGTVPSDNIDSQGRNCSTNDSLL
Chain of beta1-adrenoceptor (P08588 whole entry): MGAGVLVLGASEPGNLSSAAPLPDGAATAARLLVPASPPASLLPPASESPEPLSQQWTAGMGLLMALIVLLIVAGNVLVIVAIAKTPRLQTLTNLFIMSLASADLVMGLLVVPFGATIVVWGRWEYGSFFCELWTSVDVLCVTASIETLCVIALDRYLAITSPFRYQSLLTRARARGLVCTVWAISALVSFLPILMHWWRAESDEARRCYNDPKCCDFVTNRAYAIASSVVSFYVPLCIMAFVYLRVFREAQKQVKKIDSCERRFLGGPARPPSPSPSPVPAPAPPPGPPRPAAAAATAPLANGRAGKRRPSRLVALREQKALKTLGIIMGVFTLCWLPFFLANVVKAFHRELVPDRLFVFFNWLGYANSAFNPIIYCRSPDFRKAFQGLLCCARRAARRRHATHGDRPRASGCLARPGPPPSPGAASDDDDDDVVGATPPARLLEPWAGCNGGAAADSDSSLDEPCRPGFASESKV

| Compound | Kd (human beta3-adrenoceptor) | Kd (beta1-adrenoceptor) | Kd (human beta2-adrenoceptor) | melting point | Beta 1 Log KD (beta1-adrenoceptor) | Beta 2 Log KD (human beta2-adrenoceptor) | Beta 3 Log KD (human beta3-adrenoceptor) |
| --- | --- | --- | --- | --- | --- | --- | --- |
| O=C(NCCNCC(O)COc1ccc(OCCOCC2CC2)cc1)Nc1ccc(OCc2ccccc2)cc1 (stereo not drawn) [45a] | 1780 nM | 70.8 nM |  |  |  |  |  |
| O=C(NCCNCC(O)COc1ccc(OCCOCCc2ccc(F)cc2)cc1)Nc1ccc(O)cc1 (stereo not drawn) [46b] | 1120 nM |  | 1020 nM | 113 to 115 °C | −8.50 ± 0.07 |  |  |
| O=C(NCCNCC(O)COc1ccc(OCCOCC2CC2)cc1)Nc1cccc(Cl)c1 (stereo not drawn) [46e, 1-(2-(3-(4-(2-(Cyclopropylmethoxy)ethoxy)phenoxy)-2-hydroxypropylamino)ethyl)-3-(3-chlorophenyl)urea hydroformate] | 8510 nM | 29.5 nM | 5750 nM |  |  |  |  |
| CCOCCOc1ccc(OCC(O)CNCCNC(=O)Nc2cccc(Cl)c2)cc1 (stereo not drawn) [46f, 1-(2-(3-(4-(2-Ethoxyethoxy)phenoxy)-2-hydroxypropylamino)ethyl)-3-(3-chlorophenyl)urea hydroformate] | 7240 nM | 31.6 nM | 6310 nM |  |  |  |  |
| CCOCCOc1ccc(OCC(O)CNCCNC(=O)Cc2ccccc2O)cc1 (stereo not drawn) [46g, N-(2-(3-(4-(2-ethoxyethoxy)phenoxy)-2-hydroxypropylamino)ethyl)-2-(2-hydroxyphenyl)acetamide] | 10000 nM | 77.6 nM | 537 nM |  |  |  |  |
| CCOCCOc1ccc(OCC(O)CNCCNC(=O)Cc2cccc(O)c2)cc1 (stereo not drawn) [46h, N-(2-(3-(4-(2-ethoxyethoxy)phenoxy)-2-hydroxypropylamino)ethyl)-2-(3-hydroxyphenyl)acetamide] | 9330 nM | 44.7 nM | 257 nM |  |  |  |  |
| O=C(Cc1ccc(O)cc1)NCCNCC(O)COc1ccc(OCCOCC2CC2)cc1 (stereo not drawn) [46i, N-(2-(3-(4-(2-(cyclopropylmethoxy)ethoxy)phenoxy)-2 hydroxypropylamino)ethyl)-2-(4-hydroxyphenyl)acetamide] | 3890 nM | 17 nM | 933 nM |  |  |  |  |
| N#Cc1cc(OCCOCC2CC2)ccc1OCC(O)CNCCNC(=O)Nc1ccc(O)cc1 (stereo not drawn) [LK204-545] |  |  |  |  |  | −5.20 ± 0.03 | −4.62 ± 0.09 |
| O=C(Cc1ccccc1)NCCNCC(O)COc1ccc(OCCOC2CCCC2)cc1 (stereo not drawn) [compound 49, N-(2-(3-(4-(2-(Cyclopentyloxy)ethoxy)phenoxy)-2-hydroxypropylamino)ethyl)-2-phenylacetamide Hydroformate] | 4370 nM | 3.8 nM | 53.7 nM |  |  |  |  |
| O=C(Nc1ccccc1)OCCNCC(O)COc1ccc(OCCOC2CCCC2)cc1 (stereo not drawn) [compound 51, 2-(3-(4-(2-(Cyclopentyloxy)ethoxy)phenoxy)-2-hydroxypropylamino)ethyl phenylcarbamate] | 1050 nM | 29.5 nM | 468 nM |  |  |  |  |
| OC(CNCCNC(=S)Nc1ccccc1)COc1ccc(OCCOC2CCCC2)cc1 (stereo not drawn) [compound 52, 1-(2-(3-(4-(2-(Cyclopentyloxy)ethoxy)phenoxy)-2-hydroxypropylamino)ethyl)-3-phenylthiourea] | 7080 nM | 81.3 nM | 692 nM |  |  |  |  |
| O=S(=O)(Cc1ccccc1)NCCNCC(O)COc1ccc(OCCOC2CCCC2)cc1 (stereo not drawn) [compound 53, N-(2-(3-(4-(2-(Cyclopentyloxy)ethoxy)phenoxy)-2-hydroxypropylamino)ethyl)-benzylsulfonamide] | 19100 nM | 25.7 nM | 933 nM |  |  |  |  |
| O=C(NCCNCC(O)COc1ccc(OCCOC2CCCC2)cc1)Nc1ccc(O)c(F)c1 (stereo not drawn) [compound 54, 1-(2-(3-(4-(2-(Cyclopentyloxy)ethoxy)phenoxy)-2-hydroxypropylamino)ethyl)-3-(3-fluoro-4-hydroxyphenyl)urea Hydroformate] | 10200 nM | 8.51 nM | 2570 nM |  |  |  |  |

Continued, values first:

| Kd (human beta3-adrenoceptor) | Kd (beta1-adrenoceptor) | Kd (human beta2-adrenoceptor) | melting point | Beta 1 Log KD (beta1-adrenoceptor) | Beta 2 Log KD (human beta2-adrenoceptor) | Beta 3 Log KD (human beta3-adrenoceptor) | Compound |
| --- | --- | --- | --- | --- | --- | --- | --- |
| 24000 nM | 12.6 nM | 3020 nM | 109 to 115 °C |  |  |  | O=C(NCCNCC(O)COc1ccc(OCCOC2CCCC2)cc1)Nc1ccccc1 (stereo not drawn) [47a] |
| 17400 nM |  |  | 114 to 115 °C | −7.33 ± 0.03 | −6.27 ± 0.02 |  | Cc1ccccc1NC(=O)NCCNCC(O)COc1ccc(OCCOC2CCCC2)cc1 (stereo not drawn) [47b] |
| 17400 nM |  |  |  | −8.04 ± 0.04 | −6.06 ± 0.03 |  | Cc1cccc(NC(=O)NCCNCC(O)COc2ccc(OCCOC3CCCC3)cc2)c1 (stereo not drawn) [47c] |
| 22900 nM |  |  | 142 to 144 °C | −7.76 ± 0.04 |  |  | Cc1ccc(NC(=O)NCCNCC(O)COc2ccc(OCCOC3CCCC3)cc2)cc1 (stereo not drawn) [47d] |
| 13800 nM |  |  | 78 to 83 °C | −7.02 ± 0.04 | −5.93 ± 0.02 |  | COc1ccccc1NC(=O)NCCNCC(O)COc1ccc(OCCOC2CCCC2)cc1 (stereo not drawn) [47e] |
| 17400 nM |  |  | 103 to 110 °C | −7.76 ± 0.03 | −6.05 ± 0.03 |  | COc1cccc(NC(=O)NCCNCC(O)COc2ccc(OCCOC3CCCC3)cc2)c1 (stereo not drawn) [47f] |
| 20000 nM |  |  | 121 to 125 °C | −7.80 ± 0.04 | −5.86 ± 0.04 |  | COc1ccc(NC(=O)NCCNCC(O)COc2ccc(OCCOC3CCCC3)cc2)cc1 (stereo not drawn) [47g] |
| 21400 nM |  |  | 115 to 117 °C | −7.82 ± 0.03 | −5.94 ± 0.04 |  | O=C(NCCNCC(O)COc1ccc(OCCOC2CCCC2)cc1)Nc1ccccc1F (stereo not drawn) [47h] |
| 18600 nM |  |  | 108 to 110 °C | −8.17 ± 0.03 | −6.54 ± 0.02 |  | O=C(NCCNCC(O)COc1ccc(OCCOC2CCCC2)cc1)Nc1cccc(F)c1 (stereo not drawn) [47i] |
| 24500 nM |  |  | 130 to 133 °C | −7.70 ± 0.04 | −5.92 ± 0.09 |  | O=C(NCCNCC(O)COc1ccc(OCCOC2CCCC2)cc1)Nc1ccc(F)cc1 (stereo not drawn) [47j] |
| 18600 nM |  |  | 99 to 103 °C | −7.11 ± 0.03 |  |  | O=C(NCCNCC(O)COc1ccc(OCCOC2CCCC2)cc1)Nc1ccccc1Cl (stereo not drawn) [47k] |
| 13500 nM |  |  | 133 to 140 °C | −7.95 ± 0.05 | −5.91 ± 0.86 |  | O=C(NCCNCC(O)COc1ccc(OCCOC2CCCC2)cc1)Nc1ccc(Cl)cc1 (stereo not drawn) [47m] |
| 14800 nM |  |  |  | −7.11 ± 0.01 | −6.10 ± 0.03 |  | O=C(NCCNCC(O)COc1ccc(OCCOC2CCCC2)cc1)Nc1ccccc1Br (stereo not drawn) [47n] |
| 10200 nM |  |  | 120 to 122 °C | −7.92 ± 0.05 |  |  | O=C(NCCNCC(O)COc1ccc(OCCOC2CCCC2)cc1)Nc1cccc(Br)c1 (stereo not drawn) [47o] |
| 9330 nM |  |  | 148 to 150 °C | −7.77 ± 0.04 | −5.86 ± 0.04 |  | O=C(NCCNCC(O)COc1ccc(OCCOC2CCCC2)cc1)Nc1ccc(Br)cc1 (stereo not drawn) [47p] |
| 24000 nM |  |  | 128 to 130 °C | −6.94 ± 0.01 | −5.84 ± 0.02 |  | O=C(NCCNCC(O)COc1ccc(OCCOC2CCCC2)cc1)Nc1ccccc1C(F)(F)F (stereo not drawn) [47q] |
| 11500 nM |  |  | 96 to 98 °C | −7.77 ± 0.06 | −5.86 ± 0.06 |  | O=C(NCCNCC(O)COc1ccc(OCCOC2CCCC2)cc1)Nc1cccc(C(F)(F)F)c1 (stereo not drawn) [47r] |
| 11700 nM |  |  | 134 to 136 °C | −7.70 ± 0.04 | −5.76 ± 0.04 |  | O=C(NCCNCC(O)COc1ccc(OCCOC2CCCC2)cc1)Nc1ccc(C(F)(F)F)cc1 (stereo not drawn) [47s] |
| 3980 nM |  |  |  | −6.99 ± 0.08 |  |  | O=C(NCCNCC(O)COc1ccc(OCCOC2CCCC2)cc1)Nc1ccccc1O (stereo not drawn) [47t, 1-(2-(3-(4-(2-(Cyclopentyloxy)ethoxy)phenoxy)-2-hydroxypropylamino)ethyl)-3-(2-hydroxyphenyl)urea] |
| 6920 nM |  |  |  | −7.89 ± 0.06 | −5.85 ± 0.06 |  | O=C(NCCNCC(O)COc1ccc(OCCOC2CCCC2)cc1)Nc1cccc(O)c1 (stereo not drawn) [47u, 1-(2-(3-(4-(2-(Cyclopentyloxy)ethoxy)phenoxy)-2-hydroxypropylamino)ethyl)-3-(3-hydroxyphenyl)urea] |
| 8320 nM | 6.92 nM |  | 135 to 138 °C |  | −5.45 ± 0.10 |  | O=C(NCCNCC(O)COc1ccc(OCCOC2CCCC2)cc1)Nc1ccc(O)cc1 (stereo not drawn) [47v] |
| 4570 nM | 32.4 nM | 501 nM |  |  |  |  | O=C(NCCNCC(O)COc1ccc(OCCOC2CCCC2)cc1)c1ccccc1O (stereo not drawn) [54d] |
| 1100 nM | 30.9 nM | 282 nM |  |  |  |  | O=C(NCCNCC(O)COc1ccc(OCCOC2CCCC2)cc1)c1cccc(O)c1 (stereo not drawn) [54e] |
| 513 nM | 1.74 nM | 162 nM |  |  |  |  | O=C(NCCNCC(O)COc1ccc(OCCOC2CCCC2)cc1)c1ccc(O)cc1 (stereo not drawn) [54f] |
| 2510 nM | 3.72 nM | 15.5 nM |  |  |  |  | O=C(Cc1cccc(O)c1)NCCNCC(O)COc1ccc(OCCOC2CCCC2)cc1 (stereo not drawn) [54j, N-(2-(3-(4-(2-(cyclopentyloxy)ethoxy)phenoxy)-2-hydroxypropylamino)ethyl)-2-(3-hydroxyphenyl)acetamide] |
|  | 10.7 nM | 53.7 nM | 110 to 113 °C |  |  |  | COc1cccc(CC(=O)NCCNCC(O)COc2ccc(OCCOC3CCCC3)cc2)c1 (stereo not drawn) [62s] |
|  | 5.37 nM | 251 nM | 127.5 to 130 °C |  |  |  | O=C(Cc1ccc(O)cc1)NCCNCC(O)COc1ccc(OCCOC2CCCC2)cc1 (stereo not drawn) [62v] |
